Measured values published in patent US8871751B2, “Compositions and methods relating to nuclear hormone and steroid hormone receptors including inhibitors of estrogen receptor alpha-mediated gene expression and inhibition of breast cancer” (The Board of Trustees of the University of Illinois, priority 2008, dated 2014).
pIC50: −log10 of the molar value. Where “and” joins values, the source holds several entries; their conditions need not be identical. Equal entries are not always repeated. Entries after “also recorded” stand apart in the source; their conditions may differ. Where two headings read alike, the source gives them in different places.

Experiments:
60 cancer cell lines = settings: independent testing at NCI Developmental Therapeutics Program, cited from earlier work
ERα [1] = biological target: T1, ERα (Homo sapiens, UniProt P03372); test: PI-9 mRNA induction in tamoxifen-resistant MCF7ERαHA cells (qRT-PCR); type: cell-based; design: endogenous in cells; settings: Dox
T1 sequence (P03372 1-595): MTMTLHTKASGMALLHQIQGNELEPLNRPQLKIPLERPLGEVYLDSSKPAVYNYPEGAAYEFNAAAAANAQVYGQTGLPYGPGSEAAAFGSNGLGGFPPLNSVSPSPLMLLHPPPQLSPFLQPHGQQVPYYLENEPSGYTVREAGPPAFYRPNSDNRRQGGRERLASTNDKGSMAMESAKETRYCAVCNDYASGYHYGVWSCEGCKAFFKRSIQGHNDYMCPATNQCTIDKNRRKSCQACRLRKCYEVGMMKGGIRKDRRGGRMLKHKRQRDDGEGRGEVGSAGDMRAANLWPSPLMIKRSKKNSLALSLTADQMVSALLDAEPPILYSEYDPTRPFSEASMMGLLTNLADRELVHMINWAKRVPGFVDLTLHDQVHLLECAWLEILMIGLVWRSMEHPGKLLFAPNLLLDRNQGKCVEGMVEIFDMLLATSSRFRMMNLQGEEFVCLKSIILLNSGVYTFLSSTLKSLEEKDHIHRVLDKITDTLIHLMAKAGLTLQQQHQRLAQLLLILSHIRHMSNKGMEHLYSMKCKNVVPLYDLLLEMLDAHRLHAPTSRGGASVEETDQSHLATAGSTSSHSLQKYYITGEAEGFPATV
From the text: (§1) A model for tamoxifen-resistant breast cancers that overexpress ERα is MCF7ERαHA cells, which is a tetracycline-inducible MCF-7 model in which doxycycline (Dox) induces overexpression of ERα (40,41). In contrast to MCF-7 cells, in these cells Tam and OHT are potent agonists (2,42) and OHT, which stabilizes ERα, induced proteinase inhibitor 9 (PI-9) mRNA and protein more effectively than E2 (2,43). MCF7ERαHA cells were maintained in 10% 6XCD-treated FBS (40,41). All cells were in 0.1% DMSO vehicle and contained the indicated concentrations of TPBM added at the same time as the E2 or OHT. To induce PI-9 mRNA, the cells were treated with 0.5 μg/ml doxycycline to induce ERα and ethanol vehicle, 100 pM E2 or 500 pM OHT for 24 h, mRNA was extracted and PI-9 mRNA levels were determined by quantitative RT-PCR as described (2).
(§2) Endogenous Gene Expression. MCF-7 cells or MCF7ERαHA cells were maintained for 4 days in medium containing 5% CD calf serum (MCF-7 cells) or 10% 6×CD-FBS (MCF7ERαHA cells). In assays of TPSF inhibition of PI-9 induction, cells were plated, incubated for 24 hours in the indicated concentrations of TPSF and then maintained 4 hours with and without E2, with and without TPSF. To induce ERα, MCF7ERαHA cells were also maintained in 0.5 μg/ml Dox for 24 hours prior to addition of E2 or OHT with or without TPSF. For induction of cyclin D1, 24 hours after plating the cells, E2 with and without TPSF was added, the cells were maintained for 24 hours, RNA was extracted and mRNA levels were determined by quantitative RT-PCR as described (19, 26). Actin mRNA levels were used as the qRT-PCR internal standard. The primers and sequences used in qRT-PCR were as follows.

ERα [2] = biological target: T1, ERα; test: pS2 mRNA induction in MCF7ERαHA cells; type: cell-based; design: endogenous in cells; settings: 10 μM, Dox, 100 pM E2, 24 h
From the text: as §1
Saturating E2 (100 pM, FIG. 7A) and OHT (500 pM, FIG. 7B) induced PI-9 mRNA by 150 and 500 fold, respectively. […] The less complete inhibition of PI-9 induction in the OHT-treated cells likely results from the ˜4 fold higher level of ERα after OHT treatment than after E2 treatment (FIG. 7C). The PI-9 gene is representative of the many genes that contain complex estrogen response elements including ERE half sites. To confirm that TPBM inhibits expression of an endogenous gene that contains a near consensus ERE we used the pS2 gene. […]

ERα [3] = biological target: T1, ERα; design: Using a stably transfected breast cancer cell line that expresses endogenous ERα; endogenous in cells; host or cells: T47D-KBluc; settings: T47D cells, conditions identical to TPSF; see Mao C et al., 2008; read-out: IC50 for inhibition of E2-ERα-mediated (ERE)3-luciferase expression; cited from earlier work
NF-κB = test: NF-κB-mediated induction of IL-8 mRNA by TNF-α in MCF-7 cells; type: cell-based, human
Method: FIG. 14 illustrates results of testing for specific inhibition of E2-ERα-mediated gene expression. The effects of TPSF on an NF-κB regulated gene, IL-8, were tested in MCF-7 cells maintained for 24 hours in medium containing 10 ng/ml TNF-α alone or TNF-α and 30 μM TPSF. RNA was extracted and IL-8 mRNA levels were measured by quantitative (q)RT-PCR. Data shown is the average of 3 experiments±SEM.
as §2

ERα [4] = biological target: T1, ERα; test: (ERE)3-luciferase reporter gene assay in T47D-KBluc cells; type: cell-based; design: Using a stably transfected breast cancer cell line that expresses endogenous ERα; endogenous in cells; host or cells: T47D-KBluc

SMILES	effect on breast and ovarian cell growth (60 cancer cell lines; up to 100 μM)	inhibition of OHT-ERα induction of PI-9 mRNA (ERα [1]; 30 μM, 500 pM OHT)	pIC50 (ERα [1]; 100 pM E2, 24 h, read-out: IC50 for inhibition of E2-ERα induction of PI-9 mRNA)	reduction of induction of pS2 mRNA (ERα [2])	induction of pS2 mRNA (ERα [2]; 24±3 fold without TPBM)	pIC50 (ERα [3])	effect on NF-κB-mediated induction of IL-8 mRNA by TNF-α (NF-κB; 30 μM, 10 ng/ml TNF-α, 24 h)	pIC50 (NF-κB; Homo sapiens, MCF7, TNF-α, IL-8 mRNA, read-out: IC50 for inhibition of NF-κB gene expression)	effect on growth of a panel of 60 cancer cell lines (60 cancer cell lines; 10 μM)	effect on E2-mediated induction of PI-9 mRNA (ERα [1]; 10 μM, 100 pM E2)	effect on OHT-ERα induction of PI-9 mRNA (ERα [1]; 10 μM, 500 pM OHT)	pIC50 (ERα [4]; 0.2 nM E2, 24 h, read-out: IC50 for inhibition of E2-ERα-mediated (ERE)3-luciferase expression)	pIC50 (ERα [4]; 100 nM E2, 24 h, read-out: IC50 for inhibition of E2-ERα-mediated (ERE)3-luciferase expression (ERE-Luc))
Cn1c(=O)c2nc(CSCc3ccccc3)[nH]c2n(C)c1=O [Compound 95910, 8-Benzylsulfanylmethyl-1,3-dimethyl-3,7-dihydro-purine-2,6-dione]	did not inhibit	48%	5.05 and 5.07	50%	12±2 fold	4.96							
Cn1c(=S)c2[nH]c(SCCCC(=O)c3ccc(F)cc3)nc2n(C)c1=O [TPSF, Butyrophenone, p-fluoro-4-(1,2,3,6,-tetrahydro-1,3-dimethyl-2-oxo-6-thionopurin-8-ylthio)]							no effect; also recorded: absence of an effect	< 4.52	does not inhibit growth	blocked	blocked	6.40	6.15
